The source of these data is article PMC9897792, “Discovery of novel 2-(4-(benzyloxy)-5-(hydroxyl) phenyl) benzothiazole derivatives as multifunctional MAO-B inhibitors for the treatment of Parkinson’s disease” (Journal of Enzyme Inhibition and Medicinal Chemistry, 2023).

One data set has as its target T1, MAO-B (Homo sapiens, UniProt P27338).
T1 sequence (P27338 1-520): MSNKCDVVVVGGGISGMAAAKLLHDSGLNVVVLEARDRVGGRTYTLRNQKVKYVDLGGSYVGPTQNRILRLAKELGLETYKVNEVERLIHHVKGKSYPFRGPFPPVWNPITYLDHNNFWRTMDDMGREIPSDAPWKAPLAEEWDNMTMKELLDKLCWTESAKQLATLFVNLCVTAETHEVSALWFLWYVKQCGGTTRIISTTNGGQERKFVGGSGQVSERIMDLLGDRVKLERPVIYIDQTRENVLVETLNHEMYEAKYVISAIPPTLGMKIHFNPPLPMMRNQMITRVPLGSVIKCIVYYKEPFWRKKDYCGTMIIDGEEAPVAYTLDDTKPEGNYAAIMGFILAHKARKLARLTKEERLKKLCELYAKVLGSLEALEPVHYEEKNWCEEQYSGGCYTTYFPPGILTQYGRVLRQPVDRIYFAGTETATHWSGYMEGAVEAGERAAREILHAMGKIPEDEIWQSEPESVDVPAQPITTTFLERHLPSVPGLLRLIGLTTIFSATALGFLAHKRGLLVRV
Kind of data set: MAO-B inhibition, kynuramine method. The class given is biochemical.

Data set [1] is described as follows: Metal-chelating study by UV spectra. It counts as physicochemical. The following applies: 75.0 μM in methanol; shifted from 335.5 nm. As for the experimental part:
Particularly, after the addition of FeSO4, maximum increase in absorption was detected. Besides, after the addition of CuCl2, maximum absorption peak shifted from 335.5 to 382.0 nm.
UV spectrum method was conducted to clarify the metal chelating ability of 2-(4-(benzyloxy)-5-(hydroxyl) phenyl) benzothiazole derivatives. Test compound solution (1.0 ml, 75 µM in methanol) and metal ion solution (1.0 ml, 75 µM in methanol) were added to a vial. The vial was placed at room temperature for 2 h. Then, the mixture was removed from the vial to a quartz cell. After transfer, the absorbance of the mixture at 200–800 nm was measured by using UV spectrophotometer (Shimadzu UV-1900i).

The nature of data set [2]: Stoichiometry of 3h-Fe^2+ complex by molar ratio method. The following applies: absorbance at 385 nm; FeSO4 0–187.5 µM; 3h 75 µM in methanol. It counts as physicochemical. As for the experimental part: Because Fe^2+ played a crucial role in the pathogenesis of PD, the stoichiometry of 3h-Fe^2+ complex was further measured by using molar ratio method. 3h was incubated with various concentrations of FeSO4 (0–187.5 µM), and the electronic spectra were detected.
As the Fe^2+ played important role in the pathogenetic process of PD, the stoichiometry of 3h-Fe^2+ complex was detected by using molar ratio method. In detail, test compound solution (1.0 ml, 75 µM in methanol) was incubated with Fe^2+ solution (1.0 ml, 7.5–187.5 µM in methanol) at 37 °C for 30 min. Then, the mixture was removed from the vial to a quartz cell, and the absorbance of mixture at 200–800 nm was measured by using UV spectrophotometer (Shimadzu UV-1900i).

Data set [3] is described as follows: Parallel artificial membrane permeation assay for blood-brain barrier (PAMPA-BBB). The class given is in vitro ADME. (The PAMPA barrier holds no transporters, so it reflects passive diffusion.)
Experimental: Porcine brain lipid solution (4 µL, 20 mg/mL in n-dodecane) was added dropwise to a filter membrane. Then the membrane was placed still at room temperature for 5 min to form an artificial biomembrane. When this bionics membrane was formed, test compound solution (350 µL, 100 µg/mL) was added to the donor well which was over the artificial biomembrane, and the mixture of PBS and Ethanol (200 µL, 70/30, v/v) was added to receptor well which is under the bionics membrane. Then, the “sandwich” was incubated at 25 °C for 18 h. After incubation, 150 µL solution in both donor well and receptor well were taken out and added to a 96-well quartz cuvette, and the absorbance of the mixture at 200–800 nm was measured. The Pe value was calculated according to the formula depicted by the literature.
In data set [4] the test system is ROS release in LPS-treated BV-2 cells. Nature of the data set: LPS-induced ROS release in BV-2 cells (DCFH-DA probe). The following applies: Mus musculus, LPS 1.0 µg/mL, read-out: inhibition rate of LPS-induced ROS release. It counts as cell-based. The procedure: The inhibitory effect of 3h on LPS-induced ROS release in BV-2 cells in vitro was detected by using 2′,7′-dichlorofluorescein diacetate (DCFH-DA) as probe to quantify the ROS level in LPS-treated BV-2 cells. Noticeably, the fluorescence intensity of control group was relatively low, indicating low level of ROS. […] The fluorescence values were further detected by using microplate reader (Figure 9(B)), and then the inhibition rates were calculated. […] BV-2 cells were incubated with test compound solution (10 µL) for 30 min, then LPS (10 µL, 1.0 µg/ml in PBS) was added to each well, and each well would be incubated for another 30 min at 37 °C. […] The fluorescence was measured with excitation and emission wavelengths at 488 and 525 nm on an inverted fluorescence microscope.

As usually defined, the IC50 is the concentration that inhibits the measured activity by half. By inhibition is commonly meant the change of the read-out against control, counted positive when it falls. `Oc1cc(OCc2ccc(F)cc2)ccc1-c1nc2ccccc2s1` [3h, 2-(Benzo[d]thiazol-2-yl)-5-((4-fluorobenzyl)oxy)phenol]: the IC50 at MAO-B came out at 62 ± 5 nM. Further, the “maximum absorption peak after the addition of CuCl2” value in data set [1] turned out to be 382.0 nm. The “molar ratio at intersection of straight lines (molar ratio method)” value in data set [2] was determined as 1.65. Moreover, in data set [3], the “Prediction of penetration into CNS” value is given as “CNS+ (High BBB permeation predicted (CNS +) Pe> 3.44)”. Also, the Pe in data set [3] (PBS/EtOH (70:30), mean ± SD of three independent experiments) amounted to 4.03 ×10⁻⁶ cm/s. For the same compound, the Papp at 18 h, 100 µg/mL in data set [3] (PBS/EtOH (70:30), mean ± SD of three independent experiments, read-out: Pe) turned out to be 4.03 ± 0.14 ×10⁻⁶ cm/s. Besides, the inhibition at […] in data set [4] (2.5 µM) was 19.8%. Besides, the inhibition at 10 µM in data set [4] (10.0 µM) stood at 78%.
